Measurements: patent publication US8455543B2, “Platinum complexes and methods for inhibiting tumor cell proliferation” (University of South Florida, priority 2004, dated 2013)
Read-outs that look alike come from different tables or passages of the source. Values belong to the compound of their own block, whether it stands above or below them.

Columns and labels:
Assay in all cases: MTT assay, growth inhibition of human tumor cells
Format in all cases: cell-based
Panc-1 = test system: Panc-1
Calu-1 = Calu-1 cells, 4 days treatment, several values = separate determinations
A549 = test system: A549
[1] = MTT assay, Panc-1 cells, 4 days treatment, several values = separate determinations
[2] = Homo sapiens, 96 h, MTT assay, Panc-1 cells, 4 days treatment, several values = separate determinations

- IC50 (Panc-1; [1]): 2.6 µM
Compound: [Cis-Pt IV(NH3)2(Cl)2(NO2) (5-FU)] [JP3]

- IC50 (Panc-1; [1]): 2.3 µM
Compound: Pt^IV(en) (HOHN—CO—NH2)(NO2) 5-FU [CPA-13]

- IC50 (Panc-1; [2]): 5 µM
- IC50 (Calu-1; Homo sapiens, 96 h): 250 µM
Compound: O=c1[nH]cc(F)c(=O)[nH]1 [5-FU, 5-fluorouracil, reference compound]

Compound: [Cis-Pt IV(NH3)2(Cl)2(NO2) (OP(-salicylate)(OH)O)] [JP6]
- IC50 (Panc-1): 5.5 µM

Compound: cis-[Pt^IV(NH3)2Cl2NO2-salicylate] [CPA-19]
- IC50 (A549): 37 µM
- IC50 (Panc-1): 20 µM

- IC50 (Panc-1; [2]): 1.3 µM
- IC50 (Calu-1; Homo sapiens, 96 h): > 250 µM
Compound: NC(=O)NO [hydroxyurea, reference compound]

- IC50 (Calu-1): 13 µM
Compound: cis-[Pt^IV(NH3)2Cl2NO2-5FU [CPA-14]
